In patent publication US20250073248A1, “BIORESORBABLE CATIONIC STEROIDAL ANTIMICROBIAL COMPOUNDS WITH GLYCERIDE LINKAGES” (BRIGHAM YOUNG UNIVERSITY, priority 2023, published 2025):
Values after ≈ are worked out from the molar mass of the structure shown.

Experiments:
Candida albicans (CA) = experiment: MIC and MFC, broth microdilution, CA (Table 1); assay type: cell-based; conditions: for MBC / MIC: Candida albicans; for MBC / MBC or MFC: MFC, value in parentheses; for MIC: first value of cell
Source text: (§1) To investigate the antimicrobial impact of structural variance in the novel bioresorbable CSA compounds disclosed herein,Pseudomonas aeruginosa 01 (PA01), methicillin-resistant Staphylococcus aureus (MRSA), and Candida albicans (CA) were selected, representing Gram-negative bacterial, Gram-positive bacterial, and fungal pathogens of high or critical priority on the world health organization's priority lists for bacteria and fungi. Earlier applications of CSA compounds have focused on preventing medical device infections, and all three strains are commonly found in colonized implants, making efficacy against these pathogens an important indicator of future applicability.
(§2) All compounds were screened against these pathogens to determine their minimum inhibitory concentration (MIC), minimum bactericidal concentration (MBC), and minimum fungicidal concentration (MFC) using a broth microdilution method. […] Of these three, only CSA-4110 was similarly active against PA01and CA, inhibiting growth at 8 μg/mL.

PA01, MRSA and CA = experiment: MIC, MBC and MFC screen, all three pathogens (summary statements); assay type: cell-based; conditions: compared with CSA-4110
Source text: as §1, §2

[1] = tested on: methicillin-resistant Staphylococcus aureus (MRSA); experiment: MIC and MBC, broth microdilution, MRSA (Table 1); assay type: cell-based; conditions: for MBC / MIC: Staphylococcus aureus; for MIC: first value of cell
Source text: as §1, §2

[2] = tested on: Pseudomonas aeruginosa 01 (PA01); experiment: MIC and MBC, broth microdilution, PA01 (Table 1); assay type: cell-based; conditions: for MBC / MIC: Pseudomonas aeruginosa; for MBC / MBC or MFC: value in parentheses; for MIC: first value of cell
Source text: as §1, §2

Candida albicans 90028 = experiment: Example 1 MIC/MFC (FIG. 1, FIG. 2), C. albicans; assay type: cell-based
Procedure: (§3) The antimicrobial activities of CSA-4108, CSA-4110, CSA-4112, and CSA-4114 were determined relative to methicillin-resistant Staphylococcus aureus (MRSA), Pseudomonas aeruginosa (Pa), and Candida albicans 90028. The minimum inhibitory concentration (MIC) for CSA-4108, CSA-4110, CSA-4112, and CSA-4114 relative to the foregoing microbes is graphically reported in FIG. 1. The minimum bactericidal concentration (MBC) and minimum fungicidal concentration […] for CSA-4108, CSA-4110, CSA-4112, and CSA-4114 relative to the foregoing microbes are graphically reported in FIG. 2.

MRSA ATCC BAA-42 = experiment: Membrane depolarization, DiSC2(5) fluorescence; assay type: cell-based, Staphylococcus aureus; conditions: 8 μg/mL, FIG. 5
Procedure: Reference is made to FIGS. 4 and 5. […] CSA-131 or CSA-4110 was added at 140 second to achieve 8 μg/mL after addition.
Antimicrobial peptides (AMPs) and CSA compounds are known to permeabilize bacterial membranes. For bacterial survival, the cytoplasmic membrane must be polarized. Depolarization of this membrane prevents ATP synthesis and leads to cell death. The dye 3,3′-diethylthiadicarbocyanine iodide (DiSC2(5)) can be used to measure cell membrane polarization. Fluorescence of this dye is decreased when it inserts into polarized membranes, and membrane depolarization results in substantial increases in fluorescence (see FIG. 5).
MRSA was used to explore the impact of CSA-4110 on membrane depolarization and compared results to those with ceragenin CSA-131. […] Fluorescence was monitored over time after addition of CSA-4110 or CSA-131. which incorporated into cellular membranes.

[3] = tested on: strains of Staphylococcus aureus, Pseudomonas aeruginosa, and Candida albicans; conditions: previous work; strains of S. aureus, P. aeruginosa, C. albicans; cited from earlier work
[4] = tested on: methicillin-resistant Staphylococcus aureus (MRSA); experiment: Example 1 MIC/MBC (FIG. 1, FIG. 2), MRSA; assay type: cell-based
Procedure: as §3

[5] = MBC, value in parentheses, kills at least 99.9%

| Structure (SMILES) | MBC (Candida albicans (CA)) [µg/mL] | MIC (Candida albicans (CA)) [µg/mL] | antimicrobial activity in MIC and MBC/MFC assays, in words (PA01, MRSA and CA) | MBC [1, 5] [µg/mL] | MIC [1] [µg/mL] | MBC [2] [µg/mL] | MIC [2] [µg/mL] | MBC or MFC (Candida albicans (CA)) | MBC or MFC [1, 5] | MBC or MFC [2] | MIC (FIG. 1), ranking in words (Candida albicans 90028) | speed of depolarization of MRSA cells, comparison (MRSA ATCC BAA-42) | fluorescence of DiSC2(5) after addition (membrane depolarization) (MRSA ATCC BAA-42; added at 140 seconds) | MICs [3] [µg/mL] | MIC (FIG. 1), ranking in words [4] | MFC (FIG. 2), ranking in words (Candida albicans 90028) |
| --- | --- | --- | --- | --- | --- | --- | --- | --- | --- | --- | --- | --- | --- | --- | --- | --- |
| CCCCCCCCCC(=O)OC[C@@H](O)COC(=O)CC[C@@H](C)[C@H]1CC[C@H]2[C@@H]3[C@H](OC(=O)CCN)C[C@@H]4C[C@H](OC(=O)CCN)CC[C@]4(C)[C@H]3C[C@H](OC(=O)CCN)[C@]12C [CSA-4110R] | 8 (≈ 9.41 µM) | 8 (≈ 9.41 µM) | performed comparably to CSA-4110 | 4 (≈ 4.71 µM) | 4 (≈ 4.71 µM) | 8 (≈ 9.41 µM) | 4 (≈ 4.71 µM) | – | – | – | – | – | – | – | – | – |
| CCCCCC(=O)OCC(COC(=O)CC[C@@H](C)[C@H]1CC[C@H]2[C@@H]3[C@H](OC(=O)CCN)C[C@@H]4C[C@H](OC(=O)CCN)CC[C@]4(C)[C@H]3C[C@H](OC(=O)CCN)[C@]12C)OC(=O)CCCCC (stereo partly shown) [CSA-4206] | 8 (≈ 8.97 µM) | 8 (≈ 8.97 µM) | – | 8 (≈ 8.97 µM) | ≤ 8 | 32 (≈ 35.9 µM) | 32 (≈ 35.9 µM) | 8 (8) μg/mL | 8 (8) μg/mL | 32 (32) μg/mL | – | – | – | – | – | – |
| CCCCCCCC(=O)OCC(O)COC(=O)CC[C@@H](C)[C@H]1CC[C@H]2[C@@H]3[C@H](OC(=O)CCN)C[C@@H]4C[C@H](OC(=O)CCN)CC[C@]4(C)[C@H]3C[C@H](OC(=O)CCN)[C@]12C (stereo partly shown) [CSA-4108] | 16 (≈ 19.5 µM) | 16 (≈ 19.5 µM) | – | 32 (≈ 38.9 µM) | 16 (≈ 19.5 µM) | > 100 | 64 (≈ 77.8 µM) | 16 (16) μg/mL | – | – | same MIC | – | – | – | – | – |
| CCCCCCCCCC(=O)OCC(COC(=O)CC[C@@H](C)[C@H]1CC[C@H]2[C@@H]3[C@H](OC(=O)CCN)C[C@@H]4C[C@H](OC(=O)CCN)CC[C@]4(C)[C@H]3C[C@H](OC(=O)CCN)[C@]12C)OC(=O)CCCCCCCCC (stereo partly shown) [CSA-4210] | > 100 | > 100 | – | > 100 | > 100 | > 100 | > 100 | – | – | – | – | – | – | – | – | – |
| CCCCCCCCCCCC(=O)OCC(O)COC(=O)CC[C@@H](C)[C@H]1CC[C@H]2[C@@H]3[C@H](OC(=O)CCN)C[C@@H]4C[C@H](OC(=O)CCN)CC[C@]4(C)[C@H]3C[C@H](OC(=O)CCN)[C@]12C (stereo partly shown) [CSA-4112] | 16 (≈ 18.2 µM) | 16 (≈ 18.2 µM) | – | 32 (≈ 36.4 µM) | 16 (≈ 18.2 µM) | 64 (≈ 72.9 µM) | 64 (≈ 72.9 µM) | 16 (16) μg/mL | – | – | same MIC | – | – | – | – | – |
| CCCCCCCCCCCCNCCC[C@@H](C)[C@H]1CC[C@H]2[C@@H]3[C@H](OCCCN)C[C@@H]4C[C@H](OCCCN)CC[C@]4(C)[C@H]3C[C@H](OCCCN)[C@]12C.Cl.Cl.Cl.Cl [CSA-131] | – | – | – | – | – | – | – | – | – | – | – | more rapidly than CSA-4110 | rapid increase of fluorescence | 0.5 to 2 | – | – |
| CCCCCCCCCC(=O)OC[C@H](O)COC(=O)CC[C@@H](C)[C@H]1CC[C@H]2[C@@H]3[C@H](OC(=O)CCN)C[C@@H]4C[C@H](OC(=O)CCN)CC[C@]4(C)[C@H]3C[C@H](OC(=O)CCN)[C@]12C [CSA-4110S] | 8 (≈ 9.41 µM) | 8 (≈ 9.41 µM) | performed comparably to CSA-4110 | 4 (≈ 4.71 µM) | 4 (≈ 4.71 µM) | 16 (≈ 18.8 µM) | 8 (≈ 9.41 µM) | – | – | – | – | – | – | – | – | – |
| CCCCCCCC(=O)OCC(COC(=O)CC[C@@H](C)[C@H]1CC[C@H]2[C@@H]3[C@H](OC(=O)CCN)C[C@@H]4C[C@H](OC(=O)CCN)CC[C@]4(C)[C@H]3C[C@H](OC(=O)CCN)[C@]12C)OC(=O)CCCCCCC (stereo partly shown) [CSA-4208] | 64 (≈ 67.5 µM) | 64 (≈ 67.5 µM) | – | 64 (≈ 67.5 µM) | 32 (≈ 33.7 µM) | > 100 | 64 (≈ 67.5 µM) | – | – | – | – | – | – | – | – | – |
| CCCCCCCCCCCCCC(=O)OCC(O)COC(=O)CC[C@@H](C)[C@H]1CC[C@H]2[C@@H]3[C@H](OC(=O)CCN)C[C@@H]4C[C@H](OC(=O)CCN)CC[C@]4(C)[C@H]3C[C@H](OC(=O)CCN)[C@]12C (stereo partly shown) [CSA-4114] | 64 (≈ 70.6 µM) | 64 (≈ 70.6 µM) | – | > 100 | 64 (≈ 70.6 µM) | > 100 | > 100 | – | – | – | highest MIC | – | – | – | highest MIC | highest MFC |
| CCCC(=O)OCC(COC(=O)CC[C@@H](C)[C@H]1CC[C@H]2[C@@H]3[C@H](OC(=O)CCN)C[C@@H]4C[C@H](OC(=O)CCN)CC[C@]4(C)[C@H]3C[C@H](OC(=O)CCN)[C@]12C)OC(=O)CCC (stereo partly shown) [CSA-4204] | 32 (≈ 38.3 µM) | 16 (≈ 19.1 µM) | – | 8 (≈ 9.57 µM) | ≤ 8 | 100 (≈ 120 µM) | 64 (≈ 76.5 µM) | – | – | > 100 µg/mL | – | – | – | – | – | – |
